This is an account of results in PMC10302146, “Dual Anta-Inhibitors Targeting Protein Kinase CK1δ and A2A Adenosine Receptor Useful in Neurodegenerative Disorders” (Molecules, 2023).

In data set [1] the test system is N13 microglial cells. As to the kind of experiment: N13 cell viability, CK cocktail 48 h pretreatment then ligand (A2AAR antagonist protocol). To be noted: for effect after CK cocktail damage in the presence of NECA: compound 1 7.5 µM, compound 2 4.5 µM, NECA 10 µM; for effect after CK cocktail damage in the presence of NECA / counteraction of CK cocktail effect (cell viability): 60 min; for effect after CK cocktail damage in the presence of NECA / rescue of inflammatory damage (cell viability): after CK cocktail 20 ng/mL 48 h; for rescue of inflammatory damage (cell viability) / counteraction of CK cocktail effect (cell viability): lower concentrations (0.625 µM compound 1, 0.375 µM compound 2); for rescue of inflammatory damage (cell viability): 30 min; for counteraction of CK cocktail effect (cell viability): after CK cocktail 48 h. The method, then:
Given the nature of compounds, dual A2A/CK1δ anta-inhibitors, their neuroprotective effect against a neuroinflammatory insult was investigated following two different approaches aimed at studying the antagonist activity on the A2AAR and the inhibitor effect on CK1δ. […] The concentrations used were 35, 65, and 400 µM at 60 min of incubation.
N13 cells were plated in 96-well plates at the confluence of 1 × 10^4 cells/well and incubated overnight. Cells were divided into two groups in order to study the activity of compounds on A2AAR and CK1δ (Scheme 1). […] Cells of the second group were pretreated with 2 µL at different concentrations of understudy ligand, or the reference compound PF670462, for 30 or 60 min and then with further addition of a proinflammatory cocktail of cytokines for 48 h (Scheme 1). After treatment, 20 µL of CellTiter 96® AQueous One Solution Reagent was added to each well to a final volume of 100 µL. After 1 h of incubation, absorbance was measured at 492 nm in the microplate reader GENiosPro. Cell viability was estimated as the relation between the OD of treated cells and the OD of untreated cells in percentage. An untreated control and a control with the solvent were run. Experiments were performed in triplicate.

Data set [2] concerns N13 microglial cells. The data set can be described thus: N13 cell viability, ligand pretreatment 60 min then CK cocktail 48 h (CK1δ inhibition protocol). It is filed as cell-based.
In data set [3] the target is human recombinant A3AR. Also noted: method as in PMID 37259317. To be noted: [3H]HEMADO, membranes from CHO cells stably transfected; means ± standard errors; read-out: KiA3; cited from earlier work.
In data set [4] the test system is CK1δ. Also noted: method as in PMID 37259317. To be noted: cited from earlier work; for IC50: enzymatic inhibition.
Data set [5] concerns N13 microglial cells. As to the kind of experiment: N13 cell viability (CellTiter 96 AQueous One, MTS), ligands alone. It counts as cell-based. Particulars: absence of CK cocktail. The method, then:
Starting from these observations, since this double effect could be a suitable strategy for the treatment of chronic neurodegenerative diseases, in which neuroinflammation plays a crucial role, these compounds were tested on an in vitro model of neuroinflammation in comparison with the reference compounds. The experiments were performed using N13 microglial cells. The colorimetric method CellTiter 96® AQueous One Solution Cell Proliferation assay was used to determine the number of live cells in cytotoxicity or proliferation assays. The tetrazole compound MTS was bio-reduced by the cells into formazan, a colored product soluble in the cellular medium. The percentage of cell viability was analyzed through an absorbance reading at 492 nm. The concentrations of ligands were chosen based on the results of binding assays. Specifically, lower, similar, and higher concentrations than the Ki value were used.
Experiments were performed in triplicate.

Data set [6] concerns the target human recombinant A2AAR. Also on record: method as in PMID 37259317. To be noted: [3H]NECA, membranes from CHO cells stably transfected; means ± standard errors; read-out: KiA2A; cited from earlier work.

As to `CN(C)c1nc(N)c2ncn(C3CCCC3)c2n1` [compound 1, 9-Cyclopentyl-N2,N2-dimethyl-9H-purine-2,6-diamine], in data set [1] (N13, 48 h, read-out: cell viability), the viability at 7.5 µM turned out to be 89%. For the same compound, in data set [1], the “effect after CK cocktail damage in the presence of NECA” value was “significantly lower than that obtained in the absence of NECA”, the “rescue of inflammatory damage (cell viability)” value is reported as “unable to rescue the inflammatory damage” and the “counteraction of CK cocktail effect (cell viability)” value was “able to counteract the effect of the CK cocktail”. Further, in data set [2] (N13, 40 µM 60 min before CK cocktail 48 h, CK cocktail alone 79% ± 1.1 vs. control), the viability at 40 µM came to 85%. Besides, the Ki in data set [3] was 2880 ± 695 nM. In data set [4], the “% Residual Activity at 10 μM ± sd” value is given as 27 ± 4.0%, the “% Residual Activity at 40 μM ± sd” value was 19 ± 9.4% and the IC50 is 1750 ± 200 nM. The “cell viability vs. control” value in data set [5] (0.625 µM, 30 min) is reported as 112% ± 2.4. Further, the “cell viability vs. control” value in data set [5] (7.5 µM, 30 min) is given as “lower cell viability with respect to the control”. The “cell viability vs. control” value in data set [5] (7.5 µM, 60 min) is reported as “cell viability similar to the control”. Further, the Ki in data set [6] is 123 ± 2 nM.
On to `CN(C)c1nc(NCc2nc3ccccc3[nH]2)c2ncn(C3CCCC3)c2n1` [compound 2, N^6-methyl-(2-benzimidazolyl)-2-dimethyamino-9-cyclopentyladenine], for which, in data set [1], the cell viability is 125% ± 3.1, the “effect after CK cocktail damage in the presence of NECA” value was “significantly lower than that obtained in the absence of NECA”, the “rescue of inflammatory damage (cell viability)” value is recorded as “unable to rescue the inflammatory damage” and the “counteraction of CK cocktail effect (cell viability)” value was “able to counteract the effect of the CK cocktail”. In addition, in data set [2] (25 µM 60 min before CK cocktail 48 h, CK cocktail alone 79% ± 1.1 vs. control (Figure 6)), the cell viability is given as 94% ± 2.2. Moreover, the “effect of NECA on the neuroprotective effect of the compound” value in data set [2] (compound 25 µM 60 min before CK cocktail 48 h, then NECA 10 µM) was “ineffective”. In addition, the Ki in data set [3] is 1150 ± 107 nM. In addition, in data set [4], the “% Residual Activity at 10 μM ± sd” value is reported as 34 ± 5.0%, the “% Residual Activity at 40 μM ± sd” value is 22 ± 1.0% and the IC50 is 590 ± 200 nM. Besides, in data set [5] (0.375 µM, 30 min), the “cell viability vs. control” value is 86% ± 1.2. For the same compound, the “cell viability vs. control” value in data set [5] (4.5 µM, 60 min) is 109% ± 1.4. Besides, the “cell viability vs. control” value in data set [5] (0.375 and 0.75 µM, 60 min) is “decrease in cell viability similar to 30 min of incubation”. Besides, the “cell viability vs. control” value in data set [5] (all concentrations (0.375, 0.75, 4.5 µM), 30 min) is “decrease in cell viability”. Also, in data set [6], the Ki is 76.2 ± 173 nM.

What is called viability is the share of living cells, or the viability signal relative to a control. As a reminder, the IC50 is the concentration needed to halve the response being measured.
